The results in this text go back to ChEMBL document CHEMBL1629710, “Synthesis and biological evaluation of N-substituted-3,5-diphenyl-2-pyrazoline derivatives as cyclooxygenase (COX-2) inhibitors” (Eur J Med Chem, 2010).

Activity calls are given as the source filed them. No cut-off for these calls is given here.

One may read the IC50 as the midpoint of a concentration-inhibition curve.

For experiment [1], the target named is Prostaglandin G/H synthase 1 (Homo sapiens) (UniProt P23219). Kind of experiment: Inhibition of human COX1 from platelet microsomes.
Sequence of Prostaglandin G/H synthase 1 (Homo sapiens) (P23219 whole entry): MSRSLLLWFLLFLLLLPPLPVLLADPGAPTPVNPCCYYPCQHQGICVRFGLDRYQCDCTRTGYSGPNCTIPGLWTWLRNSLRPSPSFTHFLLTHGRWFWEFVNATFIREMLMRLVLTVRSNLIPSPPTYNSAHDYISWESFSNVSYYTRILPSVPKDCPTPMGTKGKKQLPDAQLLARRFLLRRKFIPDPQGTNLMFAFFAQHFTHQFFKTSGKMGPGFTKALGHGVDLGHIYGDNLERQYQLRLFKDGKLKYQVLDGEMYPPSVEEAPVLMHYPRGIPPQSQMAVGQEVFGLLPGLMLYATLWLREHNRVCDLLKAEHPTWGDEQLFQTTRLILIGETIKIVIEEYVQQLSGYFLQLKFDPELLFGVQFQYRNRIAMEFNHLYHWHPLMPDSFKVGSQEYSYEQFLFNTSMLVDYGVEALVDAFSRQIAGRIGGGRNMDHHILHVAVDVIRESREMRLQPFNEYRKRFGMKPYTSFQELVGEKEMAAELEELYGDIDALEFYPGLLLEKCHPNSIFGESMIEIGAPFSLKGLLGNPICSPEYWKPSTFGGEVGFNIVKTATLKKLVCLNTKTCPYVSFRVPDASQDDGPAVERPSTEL
Experiment [2] deals with T1, Prostaglandin G/H synthase 2 (Homo sapiens, UniProt P35354).
T1 sequence (P35354 whole entry): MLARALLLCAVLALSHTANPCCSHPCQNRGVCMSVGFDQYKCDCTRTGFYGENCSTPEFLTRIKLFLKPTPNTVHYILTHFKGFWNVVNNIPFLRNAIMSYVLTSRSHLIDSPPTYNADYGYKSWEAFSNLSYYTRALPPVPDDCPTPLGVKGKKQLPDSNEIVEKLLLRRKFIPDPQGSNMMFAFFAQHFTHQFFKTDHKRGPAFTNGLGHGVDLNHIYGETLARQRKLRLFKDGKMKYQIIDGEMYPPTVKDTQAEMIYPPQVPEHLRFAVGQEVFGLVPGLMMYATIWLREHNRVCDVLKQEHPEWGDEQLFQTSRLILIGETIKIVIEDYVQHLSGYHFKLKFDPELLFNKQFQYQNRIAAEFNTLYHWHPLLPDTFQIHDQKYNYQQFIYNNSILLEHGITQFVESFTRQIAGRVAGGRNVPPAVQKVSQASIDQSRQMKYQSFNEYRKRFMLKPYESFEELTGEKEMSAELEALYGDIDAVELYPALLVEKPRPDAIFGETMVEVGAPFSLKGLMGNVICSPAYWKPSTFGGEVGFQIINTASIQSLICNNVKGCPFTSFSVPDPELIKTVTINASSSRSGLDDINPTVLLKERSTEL
As to the kind of experiment: Inhibition of human recombinant COX2 expressed in baculovirus infected SF21 cell. The experiment is classed as cell-based.

Experiment [3] addresses T2, Prostaglandin G/H synthase 2 (Homo sapiens) (UniProt P35354).
T2 sequence (whole entry): T1 sequence (P35354 whole entry)
As to the kind of experiment: Inhibition of human recombinant COX2 expressed in baculovirus infected SF21 cell at 100 uM.

Experiment [4] concerns the target T2, Prostaglandin G/H synthase 2 (Homo sapiens). As to the kind of experiment: Inhibition of human recombinant COX2 expressed in baculovirus infected SF21 cell at 25 uM.

`CC(=O)N1N=C(c2ccc(S(C)(=O)=O)cc2)CC1c1ccc(F)cc1` (stereo unspecified): the inhibition entry in experiment [1] was “inactive”. The IC50 in experiment [2] amounted to 19.6 µM.
On to `CC(=O)N1N=C(c2ccc(S(C)(=O)=O)cc2)CC1c1ccccc1` (stereo unspecified), for which the inhibition entry in experiment [3] and in experiment [1] was “inactive” throughout.
Turning to `CS(=O)(=O)c1ccc(C2=NN(C(N)=S)C(c3ccc(F)cc3)C2)cc1` (stereo unspecified), the inhibition result in experiment [3] and in experiment [1] was “inactive” in each case.
In the case of `CS(=O)(=O)c1ccc(C2=NN(C(N)=S)C(c3cccc(OCc4ccccc4)c3)C2)cc1` (stereo unspecified), the inhibition result in experiment [1] and in experiment [4] was “inactive” throughout.
With `CC(=O)N1N=C(c2ccc(S(C)(=O)=O)cc2)CC1c1ccc(Cl)cc1` (stereo unspecified), in experiment [1], the inhibition entry was “inactive”. Moreover, in experiment [2], the IC50 stood at 21.7 µM.
For `Cc1ccc(C2CC(c3ccc(S(C)(=O)=O)cc3)=NN2C(N)=S)cc1` (stereo unspecified), the inhibition entry in experiment [1] is “inactive”. Moreover, in experiment [2], the IC50 is 31.9 µM.
In the same order, the values of `CS(=O)(=O)c1ccc(C2=NN(C(N)=S)C(c3ccc(Cl)cc3)C2)cc1` (stereo unspecified) are “inactive” and 9.35 µM.
Turning to `CS(=O)(=O)c1ccc(C2=NN(C(N)=S)C(c3ccc(C(F)(F)F)cc3)C2)cc1` (stereo unspecified), the inhibition result in experiment [1] and in experiment [4] was “inactive” each time.
On to `CC(=O)N1N=C(c2ccc(S(C)(=O)=O)cc2)CC1c1cccc(OCc2ccccc2)c1` (stereo unspecified), for which the inhibition entry in experiment [3] and in experiment [1] was “inactive” throughout.
For the molecule `CC(=O)N1N=C(c2ccc(S(C)(=O)=O)cc2)CC1c1ccc(C)cc1` (stereo unspecified), the inhibition entry in experiment [1] was “inactive”. For the same molecule, in experiment [2], the IC50 stood at 6.77 µM.
For `COc1ccc(C2CC(c3ccc(S(C)(=O)=O)cc3)=NN2C(N)=S)cc1` (stereo unspecified), the inhibition entry in experiment [1] and in experiment [4] was “inactive” throughout.
Consider `CC(=O)N1N=C(c2ccc(S(C)(=O)=O)cc2)CC1c1ccc(OCc2ccccc2)cc1` (stereo unspecified), for which the inhibition entry in experiment [3] and in experiment [1] was “inactive” each time.
For `CC(=O)N1N=C(c2ccc(S(C)(=O)=O)cc2)CC1c1ccc(C(F)(F)F)cc1` (stereo unspecified), in experiment [1], the inhibition entry was “inactive”. Also, the IC50 in experiment [2] came to 19.8 µM.
For `CS(=O)(=O)c1ccc(C2=NN(C(N)=S)C(c3ccccc3)C2)cc1` (stereo unspecified), in that order: “inactive” and 50.3 µM.
`CC(=O)N1N=C(c2ccc(S(C)(=O)=O)cc2)CC1c1ccccc1OCc1ccccc1` (stereo unspecified): in experiment [1], the inhibition result is “inactive”. Further, the IC50 in experiment [2] is 3.2 µM.
Take `CS(=O)(=O)c1ccc(C2=NN(C(N)=S)C(c3ccc(OCc4ccccc4)cc3)C2)cc1` (stereo unspecified): the inhibition result in experiment [1] and in experiment [4] was “inactive” each time.
Turning to `CS(=O)(=O)c1ccc(C2=NN(C(N)=S)C(c3ccccc3OCc3ccccc3)C2)cc1` (stereo unspecified), the inhibition result in experiment [1] and in experiment [4] was “inactive” in each case.
For `COc1ccc(C2CC(c3ccc(S(C)(=O)=O)cc3)=NN2C(C)=O)cc1` (stereo unspecified), the inhibition entry in experiment [1] is “inactive”. For the same molecule, in experiment [2], the half-maximal inhibitory concentration (IC50) amounted to 7.61 µM.
